The source of these data is PMC9032693, “Biological Evaluation of New Thienopyridinium and Thienopyrimidinium Derivatives as Human Choline Kinase Inhibitors” (Pharmaceutics, 2022).

Broadly, the IC50 is the point on the concentration scale where inhibition reaches its midpoint. One may read the inhibition as the share of the control response that was lost under treatment. What is called % Inhibition is how much of the control response was suppressed. In general, GI50 refers to the concentration at which growth is held to half of that of the control.

One assay deals with T1, CKα1 (Homo sapiens, UniProt P35790).
T1 construct: an N-terminally His-tagged truncated form of CKα1 (Δ75–457) was cloned into a pET-28a vector; His tag (N); made in house; host or cells: E. coli BL21 (DE3) Star
T1 sequence (P35790 75-457): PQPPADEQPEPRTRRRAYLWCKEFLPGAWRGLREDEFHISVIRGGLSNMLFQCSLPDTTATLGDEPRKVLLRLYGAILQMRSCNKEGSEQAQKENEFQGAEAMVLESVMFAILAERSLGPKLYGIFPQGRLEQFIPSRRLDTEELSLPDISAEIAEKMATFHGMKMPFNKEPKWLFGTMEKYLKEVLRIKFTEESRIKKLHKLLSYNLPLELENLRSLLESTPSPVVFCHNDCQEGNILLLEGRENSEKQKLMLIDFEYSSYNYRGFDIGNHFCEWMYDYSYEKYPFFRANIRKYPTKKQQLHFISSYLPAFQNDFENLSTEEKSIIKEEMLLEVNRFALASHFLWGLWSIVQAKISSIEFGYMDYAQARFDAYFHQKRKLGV
Kind of assay: Choline kinase assay ([methyl-14C]choline into PCho, purified enzyme). Format: biochemical. The following applies: concentration required to inhibit CKα1 enzyme by 50%. As to the method: The protein was produced and purified as previously described. Briefly, an N-terminally His-tagged truncated form of CKα1 (Δ75–457) was cloned into a pET-28a vector and expressed at 37 °C in E. coli BL21 (DE3) Star cells using 1 mM isopropyl β-D-1-thiogalactopyranoside (IPTG). After centrifugation, the cellular pellet was resuspended in 50 mM Tris-HCl pH 7.5, 500 mM NaCl, 0.2 mM phenylmethylsulphonyl fluoride (PMSF), DNase, and 0.5 mM β-mercaptoethanol, sonicated and subjected to a two-step purification procedure to isolate the target enzyme. […] Protein elution was completed using buffer A + 400 mM imidazole. A second size-exclusion chromatography step was then carried out to achieve complete purity. To this end, we used a HiPrep 26/60 Sephacryl 100 HR column (GE Healthcare, Little Chalfont, Buckinghamshire, UK) and a 20 mM Tris/HCl pH 7.5, 150 mM NaCl running buffer.
To study the effect of the compounds on CKα, an in vitro enzymatic assay was performed using the purified enzyme as previously reported in [19, 28, 29]. Briefly, the incorporation of ^14C from [methyl-^14C]choline into PCho in either the absence (control) or presence of different inhibitors at varying concentrations was used to determine the CK activity. The reaction mixture included 20 ng of purified CKα1, 10 mM ATP, 10 mM MgCl2, 100 mM Tris-HCl pH 8.5, and increasing concentrations of compounds. The mixture was preincubated at 37 °C for 5 min. Then, [methyl-^14C]choline chloride (1 mM, 4500 dpm/nmol) was added and the reaction was left to proceed for 10 min at 37 °C. The assay was stopped by immersing the reaction tubes in boiling water. PCho was separated by Thin Layer Chromatography using methanol/0.6% NaCl/28% NH4OH in water (50:50:5, v/v/v) as solvent. The radioactivity associated into PCho was determined in a Beckman 6000-TA (Madrid, Spain) liquid scintillation counter. The 50% inhibitory concentrations (IC50 values) were determined from the % enzyme activity at different concentrations of synthetic inhibitors relative to the control by using a sigmoidal dose–response curve (ED50plus v1.0 software).
In turn, `c1cc2c(s1)c(N1CCCCCC1)nc[n+]2Cc1ccc(CCCCc2ccc(C[n+]3cnc(N4CCCCCC4)c4sccc43)cc2)cc1` [Fa-29] came in with a 50% inhibitory concentration (IC50) of 1080 ± 70 nM.

For `[Br-].[Br-].c1cc2c(s1)c(N1CCCCC1)nc[n+]2Cc1ccc(CCCCc2ccc(C[n+]3cnc(N4CCCCC4)c4sccc43)cc2)cc1` [Fa-33], it took 1670 ± 80 nM to reach half-maximal inhibition (IC50). This IC50 lies about 1.5-fold higher than the previous one.

Staying with this assay, now noted: purified CKα1, inhibitor 5 µM; read-out: percentage inhibition at 5 µM.
For `c1cc2c(s1)c(N1CCCCCC1)nc[n+]2Cc1ccc(CCCCc2ccc(C[n+]3cnc(N4CCCCCC4)c4sccc43)cc2)cc1` [Fa-29], the inhibition at 5 µM amounted to 85%.

The same assay, now with this note: purified CKα1, inhibitor 10 µM, end-point assay.
For `[Br-].[Br-].c1cc2c(s1)c(N1CCCCC1)nc[n+]2Cc1ccc(CCCCc2ccc(C[n+]3cnc(N4CCCCC4)c4sccc43)cc2)cc1` [Fa-33], the “% Inhibition at 10 µM” value was 98.90%.

Staying with this assay, now noted: purified CKα1, inhibitor 30 µM, end-point assay.
On to `[Br-].[Br-].c1cc2c(s1)c(N1CCCCC1)nc[n+]2Cc1ccc(CCCCc2ccc(C[n+]3cnc(N4CCCCC4)c4sccc43)cc2)cc1` [Fa-33], for which the “% Inhibition at 30 µM” value worked out at 97.80%.

A further assay has as its system A549. Kind of assay: Antiproliferative activity, resazurin assay, 72 h. Format: cell-based, human.
Conditions: not given
As to the method: (§1) Human cervix carcinoma (HeLa), Non-small lung adenocarcinoma (A549), Colon adenocarcinoma (HT29), and human triple negative breast cancer (MDA-MB-231) were cultured in Dulbecco’s modified Eagle’s media (DMEM). B-acute lymphoblastic leukemia (RS4;11 and SEM), T-acute lymphoblastic leukemia (Jurkat), and human promyelocytic cells (HL-60), were cultured in RPMI-1640 medium. Both media were purchased from Gibco, Life Technologies (Milan, Italy) and supplemented with 10% Fetal Bovine Serum (FBS, Invitrogen, Milan, Italy,). Every six months, each cell line was checked for the presence of mycoplasma by RT-PCR.
(§2) Stock solutions (10 mM) of the different compounds were made in DMSO. Cancer cells were seeded in tissue-treated, flat bottom, 384-well plates (Corning) according to their optimal density, (A549 1000 cells/wells; MDA-MB-231, HeLa and HT-29 2000 cells/well and finally Jurkat, HL-60 SEM and RS4;11 20.000 cells/well) in 27 µL of complete medium per well.
(§3) The day after cell seeding and immediately before cell treatment, 10 mM stock solutions of the compounds were pre-diluted to a […] concentration in 250 µL of Hank’s in a 96-well plate (Corning). Subsequent 1:5 dilutions were carried out using a microlab STAR 96-CORE liquid handling system (Hamilton), a robotized liquid handling tool that was employed for all steps, from cell seeding to drug dilution and cell treatment to ensure high reproducibility while reducing time for large screening execution. This pre-dilution step was necessary to avoid DMSO-related cytotoxicity and compound precipitation in the cell culture medium. In every case, DMSO concentration never exceeded 0.1%.
(§4) Positive (Bortezomib 1 µM) and negative (0.1% DMSO) controls were included in all the screened plates to allow for monitoring the Z’ factor throughout the entire screening. Cells were treated with 3 µL of the previously made dilutions; thus, generating a 6-point 5-fold dose–response curve starting from 10 µM. Within a plate, each drug concentration was tested in duplicate in two independent experiments for each compound.
(§5) Treated cells were then placed inside the CO2 incubator for 72 h at 37 °C. Cell viability was assessed by resazurin assay, in which 3 µL of resazurin per well were added using the previously described automated platform. Plates were placed in the incubator at 37 °C for 2 h, and then the fluorescence of each plate was read using a Spark 10 M multimode microplate reader (Tecan Group Ltd., Mannedorf, Switzerland) with 535 nm excitation wavelength and 600 nm emission wavelength.
On the technique in general: Alamar Blue is a resazurin reagent that responds to reducing activity.
With `[Br-].[Br-].c1cc2c(s1)c(N1CCCCC1)nc[n+]2Cc1ccc(CCCCc2ccc(C[n+]3cnc(N4CCCCC4)c4sccc43)cc2)cc1` [Fa-33], the GI50 is 160 ± 10 nM.

Still in this assay, the particulars now being: Homo sapiens, A549.
For `c1cc2c(s1)c(N1CCCCCC1)nc[n+]2Cc1ccc(CCCCc2ccc(C[n+]3cnc(N4CCCCCC4)c4sccc43)cc2)cc1` [Fa-29], the concentration for 50% growth inhibition (GI50) amounted to 140 ± 20 nM.

Another assay deals with HL-60. Kind of assay: Antiproliferative activity, resazurin assay, 72 h. The class given is cell-based, human.
Conditions: not given
The procedure: as §1, §2, §3, §4, §5
Turning to `[Br-].[Br-].c1cc2c(s1)c(N1CCCCC1)nc[n+]2Cc1ccc(CCCCc2ccc(C[n+]3cnc(N4CCCCC4)c4sccc43)cc2)cc1` [Fa-33], the 50% growth inhibitory concentration (GI50) stood at 140 ± 10 nM.

The assay is the same for the next values; noted with them: Homo sapiens, HL-60.
With `c1cc2c(s1)c(N1CCCCCC1)nc[n+]2Cc1ccc(CCCCc2ccc(C[n+]3cnc(N4CCCCCC4)c4sccc43)cc2)cc1` [Fa-29], halving of growth (GI50) required 550 ± 20 nM.

The next assay concerns HT29. As to the kind of experiment: Antiproliferative activity, resazurin assay, 72 h. Format: cell-based, human.
Conditions: not given
As to the method: as §1, §2, §3, §4, §5
For `[Br-].[Br-].c1cc2c(s1)c(N1CCCCC1)nc[n+]2Cc1ccc(CCCCc2ccc(C[n+]3cnc(N4CCCCC4)c4sccc43)cc2)cc1` [Fa-33], the concentration for 50% growth inhibition (GI50) turned out to be 1070 ± 100 nM.

The same assay, now with this note: Homo sapiens, HT-29.
`c1cc2c(s1)c(N1CCCCCC1)nc[n+]2Cc1ccc(CCCCc2ccc(C[n+]3cnc(N4CCCCCC4)c4sccc43)cc2)cc1` [Fa-29] came in with a GI50 of 1090 ± 200 nM.

In a further assay the test system is HeLa. Kind of assay: Antiproliferative activity, resazurin assay, 72 h. The class given is cell-based, human.
Conditions: not given
As to the method:
as §1, §2, §3, §4, §5
In the case of `[Br-].[Br-].c1cc2c(s1)c(N1CCCCC1)nc[n+]2Cc1ccc(CCCCc2ccc(C[n+]3cnc(N4CCCCC4)c4sccc43)cc2)cc1` [Fa-33], the concentration for 50% growth inhibition (GI50) is 280 ± 20 nM.

Staying with this assay, now noted: Homo sapiens, HeLa.
Consider `c1cc2c(s1)c(N1CCCCCC1)nc[n+]2Cc1ccc(CCCCc2ccc(C[n+]3cnc(N4CCCCCC4)c4sccc43)cc2)cc1` [Fa-29], for which the GI50 was determined as 840 ± 40 nM.

For another assay, the system named is Jurkat. As to the kind of experiment: Antiproliferative activity, resazurin assay, 72 h. The class given is cell-based, human.
Conditions: not given
The procedure:
as §1, §2, §3, §4, §5
With `[Br-].[Br-].c1cc2c(s1)c(N1CCCCC1)nc[n+]2Cc1ccc(CCCCc2ccc(C[n+]3cnc(N4CCCCC4)c4sccc43)cc2)cc1` [Fa-33], growth was halved (GI50) at 1460 ± 100 nM.

Staying with this assay, now noted: Homo sapiens, Jurkat.
The compound `c1cc2c(s1)c(N1CCCCCC1)nc[n+]2Cc1ccc(CCCCc2ccc(C[n+]3cnc(N4CCCCCC4)c4sccc43)cc2)cc1` [Fa-29] yielded a 50% growth inhibitory concentration (GI50) of 5230 ± 800 nM.

A further assay deals with MDA-MB-231. As to the kind of experiment: Antiproliferative activity, resazurin assay, 72 h. Format: cell-based, human.
Conditions: not given
As to the method: as §1, §2, §3, §4, §5
Take `[Br-].[Br-].c1cc2c(s1)c(N1CCCCC1)nc[n+]2Cc1ccc(CCCCc2ccc(C[n+]3cnc(N4CCCCC4)c4sccc43)cc2)cc1` [Fa-33]: the GI50 was 410 ± 20 nM.

The same assay, now with this note: Homo sapiens, MDA-MB-231.
In the case of `c1cc2c(s1)c(N1CCCCCC1)nc[n+]2Cc1ccc(CCCCc2ccc(C[n+]3cnc(N4CCCCCC4)c4sccc43)cc2)cc1` [Fa-29], halving of growth (GI50) required 500 ± 20 nM.

For the next assay, the system named is RS 4;11. Kind of assay: Antiproliferative activity, resazurin assay, 72 h.
Conditions: not given
The class given is cell-based, human. As to the method:
as §1, §2, §3, §4, §5
`[Br-].[Br-].c1cc2c(s1)c(N1CCCCC1)nc[n+]2Cc1ccc(CCCCc2ccc(C[n+]3cnc(N4CCCCC4)c4sccc43)cc2)cc1` [Fa-33] returned a GI50 of 760 ± 100 nM.

The same assay, now with this note: Homo sapiens, RS4-11.
`c1cc2c(s1)c(N1CCCCCC1)nc[n+]2Cc1ccc(CCCCc2ccc(C[n+]3cnc(N4CCCCCC4)c4sccc43)cc2)cc1` [Fa-29] showed a GI50 of 1600 ± 100 nM.

For another assay, the system named is SEM cells. As to the kind of experiment: Antiproliferative activity, resazurin assay, 72 h.
Conditions: not given
Format: cell-based, human. The procedure:
as §1, §2, §3, §4, §5
Compound `[Br-].[Br-].c1cc2c(s1)c(N1CCCCC1)nc[n+]2Cc1ccc(CCCCc2ccc(C[n+]3cnc(N4CCCCC4)c4sccc43)cc2)cc1` [Fa-33] returned a concentration for 50% growth inhibition (GI50) of 1370 ± 70 nM.

Still in this assay, the particulars now being: Homo sapiens.
For `c1cc2c(s1)c(N1CCCCCC1)nc[n+]2Cc1ccc(CCCCc2ccc(C[n+]3cnc(N4CCCCCC4)c4sccc43)cc2)cc1` [Fa-29], it took 1770 ± 200 nM to inhibit growth by half (GI50).
